Our source for the Ki and Level values is ChEMBL document CHEMBL1135136, “Carbonic anhydrase inhibitors. Preparation of potent sulfonamides inhibitors incorporating bile acid tails” (Bioorg Med Chem Lett, 2002).

The target of one experiment is T1, Carbonic anhydrase 4 (Bos taurus, UniProt Q95323).
T1 sequence (Q95323 whole entry): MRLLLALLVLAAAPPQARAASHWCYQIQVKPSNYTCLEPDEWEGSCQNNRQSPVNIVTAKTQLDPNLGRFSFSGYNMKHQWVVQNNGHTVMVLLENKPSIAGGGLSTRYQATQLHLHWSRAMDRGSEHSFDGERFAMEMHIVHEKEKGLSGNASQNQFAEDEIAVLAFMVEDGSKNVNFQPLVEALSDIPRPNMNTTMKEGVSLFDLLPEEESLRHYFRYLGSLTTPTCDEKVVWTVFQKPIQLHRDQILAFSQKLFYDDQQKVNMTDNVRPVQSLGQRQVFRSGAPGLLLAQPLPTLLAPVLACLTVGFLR

Experiment [1] is filed under the species Oryctolagus cuniculus.
Description: (§1) Tested for level of sulfonamide in red blood cells of albino rabbits at 120 min post-administration of 50 mg/kg sulfonamides
The target in another experiment is Carbonic anhydrase 2 (Homo sapiens, UniProt P00918).
In the next experiment the target is Carbonic anhydrase 1 (Homo sapiens, UniProt P00915).
Chain of Carbonic anhydrase 1 (P00915 whole entry): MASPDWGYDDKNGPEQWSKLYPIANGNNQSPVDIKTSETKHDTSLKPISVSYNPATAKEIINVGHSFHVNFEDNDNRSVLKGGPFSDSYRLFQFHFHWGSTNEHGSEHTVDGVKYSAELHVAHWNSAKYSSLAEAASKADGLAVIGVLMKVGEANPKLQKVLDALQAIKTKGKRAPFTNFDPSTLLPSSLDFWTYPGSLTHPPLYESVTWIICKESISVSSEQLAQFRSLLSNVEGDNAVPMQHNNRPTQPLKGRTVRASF
Experiment [2] is filed under the species Oryctolagus cuniculus. The source holds these as a separate data set.
Description: as §1
The species entered for experiment [3] is Oryctolagus cuniculus. The source holds these as a separate data set.
Description: Tested for level of sulfonamide in red blood cells of albino rabbits at 60 min post-administration of 50 mg/kg sulfonamides

Molecules are shown by their SMILES. “And” between values parts separate entries of the source, which are not always exact repeats. Identical values can stand only once.

Description for Carbonic anhydrase 1: Inhibitory activity against human recombinant carbonic anhydrase I (CA1)
Description for Carbonic anhydrase 2: Inhibitory activity against human recombinant carbonic anhydrase II (CA2)
Description for Carbonic anhydrase 4: Inhibitory activity against bovine carbonic anhydrase IV (CA4), obtained from bovine lung microsomes

In general, Ki refers to the equilibrium dissociation constant of an inhibitor or competing ligand from its target. A lower Ki goes with tighter binding. Regarding `C[C@H](CCC(=O)Oc1ccc2nc(S(N)(=O)=O)sc2c1)[C@H]1CC[C@H]2[C@@H]3C(=O)C[C@@H]4CC(=O)CC[C@]4(C)[C@H]3CC(=O)[C@]12C`, the Ki on Carbonic anhydrase 4 turned out to be 5 nM; at Carbonic anhydrase 2, 0.6 nM; at Carbonic anhydrase 1, 33 nM. Also, the Level is 163 µM in the experiment listed under Oryctolagus cuniculus [1]; 158 µM in the experiment filed under Oryctolagus cuniculus [2]; 156 µM and 159 µM in the experiment listed under Oryctolagus cuniculus [3].

With `C[C@H](CCC(=O)Nc1nnc(S(N)(=O)=O)s1)[C@H]1CC[C@H]2[C@@H]3C(=O)C[C@@H]4CC(=O)CC[C@]4(C)[C@H]3CC(=O)[C@]12C`, the inhibition constant (Ki) at Carbonic anhydrase 4 was 9 nM; on Carbonic anhydrase 2, 0.5 nM; on Carbonic anhydrase 1, 41 nM. In addition, the Level in the experiment filed under Oryctolagus cuniculus [1] was 159 µM; in the experiment listed under Oryctolagus cuniculus [2], 151 µM; in the experiment filed under Oryctolagus cuniculus [3], 155 µM and 162 µM.

As for `C[C@H](CCC(=O)Nc1cc(Cl)c(S(N)(=O)=O)cc1S(N)(=O)=O)[C@H]1CC[C@H]2[C@@H]3[C@H](O)C[C@@H]4C[C@H](O)CC[C@]4(C)[C@H]3C[C@H](O)[C@]12C`, the Ki at Carbonic anhydrase 4 was determined as 130 nM; at Carbonic anhydrase 2 it was 56 nM; on Carbonic anhydrase 1, 400 nM.

Consider `C[C@H](CCC(=O)Nc1ccc(S(N)(=O)=O)cc1Cl)[C@H]1CC[C@H]2[C@@H]3[C@@H](O)C[C@@H]4C[C@H](O)CC[C@]4(C)[C@H]3CC[C@]12C`, for which the figures for the Ki at Carbonic anhydrase 4, at Carbonic anhydrase 2 and at Carbonic anhydrase 1 were 30 nM, 17 nM and 190 nM, respectively.

`C[C@H](CCC(=O)Nc1ccc2nc(S(N)(=O)=O)sc2c1)[C@H]1CC[C@H]2[C@@H]3C(=O)C[C@@H]4CC(=O)CC[C@]4(C)[C@H]3CC(=O)[C@]12C`: the values for the Ki on Carbonic anhydrase 4, on Carbonic anhydrase 2 and at Carbonic anhydrase 1 were 7 nM, 0.8 nM and 39 nM, respectively.

Consider `C[C@H](CCC(=O)/N=c1\sc(S(N)(=O)=O)nn1C)[C@H]1CC[C@H]2[C@@H]3[C@@H](O)C[C@@H]4C[C@H](O)CC[C@]4(C)[C@H]3CC[C@]12C`, for which the Ki on Carbonic anhydrase 4 was 17 nM; on Carbonic anhydrase 2, 2 nM; on Carbonic anhydrase 1 it was 54 nM.

For `C[C@H](CCC(=O)Nc1ccc(S(N)(=O)=O)cc1F)[C@H]1CC[C@H]2[C@@H]3[C@@H](O)C[C@@H]4C[C@H](O)CC[C@]4(C)[C@H]3CC[C@]12C`, the inhibition constant Ki at Carbonic anhydrase 4 was determined as 24 nM; at Carbonic anhydrase 2, 11 nM; at Carbonic anhydrase 1, 180 nM.

In the case of `C[C@H](CCC(=O)Nc1cccc(S(N)(=O)=O)c1)[C@H]1CC[C@H]2[C@@H]3C(=O)C[C@@H]4CC(=O)CC[C@]4(C)[C@H]3CC(=O)[C@]12C`, the Ki was 440 nM on Carbonic anhydrase 4, 156 nM at Carbonic anhydrase 2 and 7440 nM on Carbonic anhydrase 1.

Turning to `C[C@H](CCC(=O)NCCc1ccc(S(N)(=O)=O)cc1)[C@H]1CC[C@H]2[C@@H]3C(=O)C[C@@H]4CC(=O)CC[C@]4(C)[C@H]3CC(=O)[C@]12C`, the values for the Ki on Carbonic anhydrase 4, at Carbonic anhydrase 2 and at Carbonic anhydrase 1 were 29 nM, 18 nM and 285 nM, respectively.

Regarding `C[C@H](CCC(=O)Nc1ccc(S(N)(=O)=O)cc1Br)[C@H]1CC[C@H]2[C@@H]3[C@@H](O)C[C@@H]4C[C@H](O)CC[C@]4(C)[C@H]3CC[C@]12C`, the Ki was 23 nM on Carbonic anhydrase 4, 10 nM at Carbonic anhydrase 2 and 91 nM on Carbonic anhydrase 1.

In the case of `C[C@H](CCC(=O)Nc1cc(Cl)c(S(N)(=O)=O)cc1S(N)(=O)=O)[C@H]1CC[C@H]2[C@@H]3CC[C@@H]4C[C@H](O)CC[C@]4(C)[C@H]3CC[C@]12C`, the inhibition constant Ki came to 82 nM on Carbonic anhydrase 4, 54 nM at Carbonic anhydrase 2 and 200 nM at Carbonic anhydrase 1.

In the case of `C[C@H](CCC(=O)Nc1ccc(S(N)(=O)=O)cc1F)[C@H]1CC[C@H]2[C@@H]3C(=O)C[C@@H]4CC(=O)CC[C@]4(C)[C@H]3CC(=O)[C@]12C`, the values for the inhibitory constant (Ki) on Carbonic anhydrase 4, on Carbonic anhydrase 2 and at Carbonic anhydrase 1 were 28 nM, 15 nM and 210 nM, respectively.

For the compound `C[C@H](CCC(=O)NCCc1ccc(S(N)(=O)=O)cc1)[C@H]1CC[C@H]2[C@@H]3[C@H](O)C[C@@H]4C[C@H](O)CC[C@]4(C)[C@H]3CC[C@]12C`, the inhibition constant Ki on Carbonic anhydrase 4 amounted to 235 nM; on Carbonic anhydrase 2, 86 nM; on Carbonic anhydrase 1, 3300 nM.

Turning to `C[C@H](CCC(=O)Nc1c(S(N)(=O)=O)cc(S(N)(=O)=O)c(Cl)c1Cl)[C@H]1CC[C@H]2[C@@H]3CC[C@@H]4C[C@H](O)CC[C@]4(C)[C@H]3CC[C@]12C`, the figures for the inhibition constant (Ki) on Carbonic anhydrase 4, on Carbonic anhydrase 2 and at Carbonic anhydrase 1 were 87 nM, 17 nM and 130 nM, respectively.

`C[C@H](CCC(=O)NCc1ccc(S(N)(=O)=O)cc1)[C@H]1CC[C@H]2[C@@H]3[C@H](O)C[C@@H]4C[C@H](O)CC[C@]4(C)[C@H]3CC[C@]12C`: the inhibitory constant (Ki) on Carbonic anhydrase 4 is 244 nM; at Carbonic anhydrase 2, 96 nM; at Carbonic anhydrase 1 it was 3450 nM.

For `C[C@H](CCC(=O)Oc1ccc2nc(S(N)(=O)=O)sc2c1)[C@H]1CC[C@H]2[C@@H]3[C@@H](O)C[C@@H]4C[C@H](O)CC[C@]4(C)[C@H]3CC[C@]12C`, the Ki at Carbonic anhydrase 4 is 6 nM; at Carbonic anhydrase 2, 0.7 nM; on Carbonic anhydrase 1, 31 nM.

In the case of `C[C@H](CCC(=O)OCCc1ccc(S(N)(=O)=O)cc1)[C@H]1CC[C@H]2[C@@H]3CC[C@@H]4C[C@H](O)CC[C@]4(C)[C@H]3CC[C@]12C`, the inhibition constant Ki at Carbonic anhydrase 4 came out at 310 nM; at Carbonic anhydrase 2 it was 81 nM; on Carbonic anhydrase 1 it was 625 nM.

Regarding `C[C@H](CCC(=O)Nc1ccc(S(N)(=O)=O)cc1F)[C@H]1CC[C@H]2[C@@H]3[C@H](O)C[C@@H]4C[C@H](O)CC[C@]4(C)[C@H]3CC[C@]12C`, the Ki at Carbonic anhydrase 4 stood at 128 nM; at Carbonic anhydrase 2, 50 nM; at Carbonic anhydrase 1, 1050 nM.

As to `C[C@H](CCC(=O)Nc1ccc(S(N)(=O)=O)cc1Br)[C@H]1CC[C@H]2[C@@H]3[C@H](O)C[C@@H]4C[C@H](O)CC[C@]4(C)[C@H]3CC[C@]12C`, the results for the Ki on Carbonic anhydrase 4, at Carbonic anhydrase 2 and on Carbonic anhydrase 1 were 53 nM, 34 nM and 617 nM, respectively.

Regarding `C[C@H](CCC(=O)/N=c1\sc(S(N)(=O)=O)nn1C)[C@H]1CC[C@H]2[C@@H]3C(=O)C[C@@H]4CC(=O)CC[C@]4(C)[C@H]3CC(=O)[C@]12C`, the Ki on Carbonic anhydrase 4 came to 8 nM; at Carbonic anhydrase 2, 1 nM; at Carbonic anhydrase 1, 29 nM.

Regarding `C[C@H](CCC(=O)NCCC(=O)Nc1nnc(S(N)(=O)=O)s1)[C@H]1CC[C@H]2[C@@H]3CC[C@@H]4C[C@H](O)CC[C@]4(C)[C@H]3CC[C@]12C`, the inhibition constant Ki was found to be 19 nM on Carbonic anhydrase 4, 2.1 nM at Carbonic anhydrase 2 and 200 nM on Carbonic anhydrase 1.
